Read-outs that look alike come from different tables or passages of the source.
Assays:
Cytotoxicity, MTT assay = type: cell-based; settings: human, Hep G2 (ATCC HB-8065) cells; Hep G2; at the concentration given as IC50 bound; read-out: cell viability at the highest or lowest test concentration
Procedure: (§1) Before removing the frozen cell stocks from liquid nitrogen, culture medium was pre-warmed to 37° C. The frozen tube was then removed from liquid nitrogen and placed into a 37° C. water bath and shaken gently to thaw the cell stock as quickly as possible. A small portion of the pre-warmed culture medium was added to the cell solution. The cell suspension was then centrifuged at 1000 r/min for 3 minutes. The supernatant was discarded and the cells were resuspended in fresh culture medium.
(§2) NIH 3T3 (ATCC CRL-1658) and Hep G2 (ATCC HB-8065) cells were cultured with DMEM+10% FBS in 100 mm dishes. Cells were lifted for subculture or testing when confluence reached ˜60% by treating with 1× trypsin (incubated for 3 min at 37° C.). J774 (ATCC TIB-67) cells were cultured with DMEM+10% FBS in 100 mm dishes. Cells were lifted for subculture or testing when confluence reached ˜80% using a cell scraper. RAW264.7 (ATCC TIB-71) cells were cultured with DMEM+10% heat-inactivated FBS+1% pen/strep in T75 flasks. Cells were lifted for subculture or testing when confluence reached ˜80% using a cell scraper.
(§3) • 1. Cells were lifted and resuspended in culture medium. The number of cells in the cell suspension was determined using an auto-cell counter: 10 μL of the cell suspension was mixed with 10 μL 1× trypan blue (filtered with 0.2 μm PES filter) and the mixture was loaded onto a cell counting slide. Based on the concentration of viable cells, the cell suspension was further diluted to achieve the desired density. • 2. Cells were seeded in 96 well plates by adding 100 μL final cell suspension column-by-column using a multichannel pipette (5000 cells/well for NIH 3T3, 10000 cells/well for Hep G2, J774 and RAW264.7). The outer wells were block with PBS to reduce the effects of evaporation. One column was filled with only culture medium as a blank. Cells were incubated overnight before adding the test articles. • 3. Test articles were dissolved in 1×PBS (or DMSO) to obtain stocks solution. Stock solutions were pre-warmed before use. […] Serial dilutions (2-fold) of the 10× solutions were made in sterile culture tubes by diluting in 1×PBS (8 dilutions to yield 9 test concentrations). 900 μL of culture media was added to each tube to obtain final drug solution containing 10% PBS (or less than 1% DMSO) for each experimental group. • 4. The original culture medium was gently removed from the 96-well plates using a pipette. 100 μL of the test article solutions prepared in Step 3 were added to rows 2-7 of each column to obtain six replicates for each concentration. Plates were then incubated for 24 hours. • 5. MTT solutions were prepared by dissolving commercial MTT powder in 1×PBS to a concentration of 5 mg/mL. After passing through a 0.22 μm PES filter, the MTT solution was divided into 1 mL portions in sterile centrifuge tubes and stored at −20° C. • 6. MTT stock solutions were removed from the freezer to thaw at room temperature. Before adding MTT solutions, cell cultures were visually inspected and imaged using a microscope (to use as a comparison with MTT results). 10 μL of the 5 mg/mL MTT solution was added to each well and the plate was incubated for 4 hours. • 7. After 4 h incubation, the culture medium/MT solution was removed gently using a pipette. 100 μL of DMSO was added to each well using a multichannel pipette. The 96-well plates were analyzed in a plate reader using the following method: shake for 5 minutes, wait for 30 seconds, and measure absorbance at 570 nm. • 8. Data processing: The average of background Abg was calculated from the blank column. All other data was first treated by subtracting Abg. The average A. and standard deviation Se of each experimental group and the average Ac and standard deviation Sc for control group (with pure culture medium incubation) were then calculated. The cell viability was determined as Ae/Ac×100% and corresponding error as Se/Ae×100%. Significant outliers in any experimental or control group were removed. […]

[1] = tested on: Hep G2 (ATCC HB-8065) cells; assay: Cytotoxicity, MTT assay; type: cell-based; settings: Homo sapiens, HepG2, 24 h, Hep G2; MTT, 24 hours incubation; read-out: IC50
Procedure: as §1, §2, §3

J774 (ATCC TIB-67) cells = assay: Cytotoxicity, MTT assay; type: cell-based; settings: for IC50: MTT, 24 hours incubation
Procedure: as §1, §2, §3

[2] = tested on: NIH 3T3 (ATCC CRL-1658) cells; assay: Cytotoxicity, MTT assay; type: cell-based; settings: NIH 3T3; for IC50: MTT, 24 hours incubation
Procedure: as §1, §2, §3

[3] = tested on: K. aerogenes (ATCC 13048); assay: MIC broth microdilution method, Table 3
[4] = tested on: S. epidermidis (ATCC 14990); assay: MIC broth microdilution method, Table 3
E. coli K12 (ATCC 47076) = assay: MIC broth microdilution method, Table 3
Hep G2 cells = assay: Cytotoxicity tested by Eurofins Pharma Discovery Services; type: cell-based; settings: for IC50: Hep G2, data provided by Eurofins
[5] = tested on: primary human hepatocytes; assay: as above; type: cell-based; settings: for IC50: data provided by Eurofins
HRPTEpiC = assay: as above; type: cell-based; settings: data provided by Eurofins
[6] = tested on: A. baumannii 1674627 (MDR); assay: MIC against resistant strains, Tables 5a-5d; type: cell-based; settings: Acinetobacter baumannii, n = 3
Procedure: (§4) Compounds described herein were evaluated for growth inhibition against a variety of bacterial species, including strains that have developed resistance to common antibacterial treatments, according to the procedure described herein, or by analogous procedures known to those skilled in the art. Resistant bacterial strains used for compound testing include methicillin-resistant S. aureus (MRSA), vancomycin resistant Enterococci (VRE) and various multi-drug resistant (MDR) strains commonly associated with hospital-acquired (nosocomial) infections, including, but not limited to A. baumannii, K. pnuemoniae, and E. cloacae.

[7] = tested on: A. baumannii CDC0290 (MDR); assay: MIC against resistant strains, Tables 5a-5d; type: cell-based; settings: Acinetobacter baumannii, n = 3
Procedure: as §4

[8] = tested on: E. cloacae 1744299 (ESBL); assay: MIC against resistant strains, Tables 5a-5d; type: cell-based; settings: Enterobacter cloacae, n = 3
Procedure: as §4

E. coli ATCC25922 (WT) = assay: MIC against resistant strains, Tables 5a-5d; type: cell-based; settings: Escherichia coli, n = 3
Procedure: as §4

E. faecium 1674620 (VRE) = assay: MIC against resistant strains, Tables 5a-5d; type: cell-based; settings: Enterococcus faecium, n = 3
Procedure: as §4

[9] = tested on: K. pneumoniae ATCC BAA-2473 (MDR); assay: MIC against resistant strains, Tables 5a-5d; type: cell-based; settings: Klebsiella pneumoniae, ATCCBAA2473, n = 3
Procedure: as §4

[10] = tested on: K. pneumoniae CDC0010 (MDR); assay: MIC against resistant strains, Tables 5a-5d; type: cell-based; settings: Klebsiella pneumoniae, n = 3
Procedure: as §4

[11] = tested on: P. aeruginosa 1674623 (MDR); assay: MIC against resistant strains, Tables 5a-5d; type: cell-based; settings: Pseudomonas aeruginosa, n = 3
Procedure: as §4

[12] = tested on: P. aeruginosa CDC0248 (MDR); assay: MIC against resistant strains, Tables 5a-5d; type: cell-based; settings: Pseudomonas aeruginosa, n = 3
Procedure: as §4

[13] = tested on: S. aureus ATCC 33591 (MRSA); assay: MIC against resistant strains, Tables 5a-5d; type: cell-based; settings: Staphylococcus aureus, n = 3
Procedure: as §4

[14] = tested on: S. aureus ATCC BAA-1717 (MRSA); assay: MIC against resistant strains, Tables 5a-5d; type: cell-based; settings: Staphylococcus aureus, n = 3
Procedure: as §4

[15] = tested on: RAW264.7 (ATCC TIB-71) cells; assay: Cytotoxicity, MTT assay; type: cell-based, murine; settings: RAW 264.7
Procedure: as §1, §2
• 1. Cells were lifted and resuspended in culture medium. The number of cells in the cell suspension was determined using an auto-cell counter: 10 μL of the cell suspension was mixed with 10 μL 1× trypan blue (filtered with 0.2 μm PES filter) and the mixture was loaded onto a cell counting slide. Based on the concentration of viable cells, the cell suspension was further diluted to achieve the desired density. • 2. […] The 96-well plates were analyzed in a plate reader using the following method: shake for 5 minutes, wait for 30 seconds, and measure absorbance at 570 nm. • 8. Data processing: The average of background Abg was calculated from the blank column. […] The average A. and standard deviation Se of each experimental group and the average Ac and standard deviation Sc for control group (with pure culture medium incubation) were then calculated. The cell viability was determined as Ae/Ac×100% and corresponding error as Se/Ae×100%. […]

[16] = Mus musculus, NIH3T3, read-out: IC50
[17] = Klebsiella aerogenes, ATCC13048
[18] = Staphylococcus epidermidis, ATCC14990
[19] = Homo sapiens, HepG2, read-out: IC50
[20] = at the concentration given as IC50 bound

MIC [3, 17]	MIC [4, 18]	MIC (E. coli K12 (ATCC 47076); Escherichia coli, ATCC47076)	Compound	viability at 24 h (Cytotoxicity, MTT assay)	IC50 [1]	IC50 (J774 (ATCC TIB-67) cells; Mus musculus, read-out: IC50)	IC50 [2, 16]	IC50 (Hep G2 cells; [19])	IC50 ([5]; Hepatocyte, read-out: IC50)	IC50 (HRPTEpiC; read-out: IC50)	also measured
8 µg/mL	2 µg/mL	4 µg/mL	CCCCC[N+](C)(C)CCCCOc1cc(/C=C/c2ccc(/C=C/c3cc(OCCCC[N+](C)(C)CCCCC)cc(OCCCC[N+](C)(C)CCCCC)c3)cc2)cc(OCCCC[N+](C)(C)CCCCC)c1 [Formula S]	52%	> 128 µg/mL	22.6 µg/mL	42.3 µg/mL				
> 128 µg/mL	4 µg/mL	> 256 µg/mL	C[N+](C)(C)CCCCCCOc1cc(/C=C/c2ccc(/C=C/c3ccc(/C=C/c4cc(OCCCCCC[N+](C)(C)C)cc(OCCCCCC[N+](C)(C)C)c4)cc3)cc2)cc(OCCCCCC[N+](C)(C)C)c1 [Formula TT]	70%	> 128 µg/mL		69.3 µg/mL	94.6 µg/mL	102 µg/mL	6.3 µg/mL	
8 µg/mL	1 µg/mL	4 µg/mL	CCCCCC[N+](C)(C)CCCCOc1cc(/C=C/c2ccc(/C=C/c3cc(OCCCC[N+](C)(C)CCCCCC)cc(OCCCC[N+](C)(C)CCCCCC)c3)cc2)cc(OCCCC[N+](C)(C)CCCCCC)c1.[I-].[I-].[I-].[I-] [Formula T]		15.3 µg/mL	4.6 µg/mL	12.4 µg/mL	11.6 µg/mL	31.8 µg/mL	2.8 µg/mL	MIC [6]: 2 µg/mL; MIC [7]: 4 µg/mL; MIC [8]: 2 µg/mL; MIC (E. coli ATCC25922 (WT)): 2 µg/mL; MIC (E. faecium 1674620 (VRE)): 0.25 µg/mL; MIC [9]: 4 µg/mL; MIC [10]: 4 µg/mL; MIC [11]: 16 µg/mL; MIC [12]: 32 µg/mL; MIC [13]: 0.5 µg/mL; MIC [14]: 1 µg/mL
			Colistin [reference compound]								IC50 (J774 (ATCC TIB-67) cells): >128 µg/mL; cell viability at the highest or lowest test concentration (J774 (ATCC TIB-67) cells; [20]): (115%); IC50 [2]: >128 µg/mL; cell viability at the highest or lowest test concentration [2, 20]: (104%); IC50 ([15]; MTT, 24 hours incubation): >20 µg/mL; cell viability at the highest or lowest test concentration [15, 20]: (109%); cell viability at the highest or lowest test concentration (Hep G2 cells; Hep G2, Eurofins, at the concentration given as IC50 bound): (100%); IC50 (Hep G2 cells): >324 µg/mL; cell viability at the highest or lowest test concentration ([5]; Eurofins, at the concentration given as IC50 bound): (101%); IC50 [5]: >324 µg/mL; IC50 (HRPTEpiC): 215 µg/mL; MIC ([3]; K. aerogenes (−), LB medium, less than 10% relative growth): 2 µg/mL; MIC ([4]; S. epidermidis (+), BHI medium, less than 10% relative growth): >64 µg/mL; MIC (E. coli K12 (ATCC 47076); E. coli K12 (−), LB medium, less than 10% relative growth): 1 µg/mL
